pIC50: −log10 of the molar value.
Key:
Assay in all cases: cells
Lu-65 = type: functional, cell-based, Homo sapiens; details: Homo sapiens, Lu-65;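 note: growth inhibition of Lu-65 cancer cells, read out by a cell viability assay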
Description: SANGER: Inhibition of human LU-65 cell growth in a cell viability assay.

ES8 = type: functional, cell-based, Homo sapiens; details: Homo sapiens, ES8;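 note: growth inhibition of human ES8 cells, read out with a cell viability assay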
Description: SANGER: Inhibition of human ES8 cell growth in a cell viability assay.

ETK-1 = type: functional, cell-based, Homo sapiens; details: Homo sapiens, ETK-1;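 note: growth inhibition of human ETK-1 cells, read out with a cell viability assay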
Description: SANGER: Inhibition of human ETK-1 cell growth in a cell viability assay.

HCC2157 = type: functional, cell-based, Homo sapiens; details: Homo sapiens, HCC2157;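 note: growth inhibition of the cancer cell line, read out as cell viability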
Description: SANGER: Inhibition of human HCC2157 cell growth in a cell viability assay.

NCI-H226 = type: functional, cell-based, Homo sapiens; details: Homo sapiens, NCI-H226;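 note: cell viability read-out used to gauge growth inhibition of the cells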
Description: SANGER: Inhibition of human NCI-H226 cell growth in a cell viability assay.

SF-126 = type: functional, cell-based, Homo sapiens; details: Homo sapiens, SF-126;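 note: growth inhibition of human SF126 cells, read out with a cell viability assay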
Description: SANGER: Inhibition of human SF126 cell growth in a cell viability assay.

NB10 = type: functional, cell-based, Homo sapiens; details: Homo sapiens, NB10;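 note: growth inhibition of NB10 cells, read out by a cell viability assay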
Description: SANGER: Inhibition of human NB10 cell growth in a cell viability assay.

KP-N-YS = type: functional, cell-based, Homo sapiens; details: Homo sapiens, KP-N-YS;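 note: cell viability assay measuring inhibition of cell line growth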
Description: SANGER: Inhibition of human KP-N-YS cell growth in a cell viability assay.

SHP77 = type: functional, cell-based, Homo sapiens, SHP-77; details: Homo sapiens, SHP77;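 note: growth inhibition of human SHP-77 cells measured by a cell viability assay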
Description: SANGER: Inhibition of human SHP-77 cell growth in a cell viability assay.

NCI-H2126 = type: functional, cell-based, Homo sapiens; details: Homo sapiens, NCI-H2126;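 note: growth inhibition of the cancer cell line, determined with a cell viability readout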
Description: SANGER: Inhibition of human NCI-H2126 cell growth in a cell viability assay.

SK-MEL-1 = type: functional, cell-based, Homo sapiens; details: Homo sapiens, SK-MEL-1;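 note: growth inhibition of human SK-MEL-1 cells, read out by a cell viability assay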
Description: SANGER: Inhibition of human SK-MEL-1 cell growth in a cell viability assay.

GOTO = type: functional, cell-based, Homo sapiens; details: Homo sapiens, GOTO;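 note: growth inhibition of GOTO cells, read out by a cell viability assay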
Description: SANGER: Inhibition of human GOTO cell growth in a cell viability assay.

KLE = type: functional, cell-based, Homo sapiens; details: Homo sapiens, KLE;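 note: growth inhibition of human KLE cells, read out with a cell viability assay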
Description: SANGER: Inhibition of human KLE cell growth in a cell viability assay.

COLO-800 = type: functional, cell-based, Homo sapiens; details: Homo sapiens, COLO-800;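 note: growth inhibition of COLO-800 cells, read out with a cell viability assay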
Description: SANGER: Inhibition of human COLO-800 cell growth in a cell viability assay.

AM-38 = type: functional, cell-based, Homo sapiens; details: Homo sapiens, AM-38;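 note: growth inhibition of AM-38 cells of human origin, read out by a cell viability assay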
Description: SANGER: Inhibition of human AM-38 cell growth in a cell viability assay.

ATN-1 = type: functional, cell-based, Homo sapiens; details: Homo sapiens, ATN-1;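 note: growth inhibition of human ATN-1 cells, read out with a cell viability assay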
Description: SANGER: Inhibition of human ATN-1 cell growth in a cell viability assay.

SCH = type: functional, cell-based, Homo sapiens; details: Homo sapiens, SCH;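 note: growth inhibition of human SCH cells, read out in a cell viability assay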
Description: SANGER: Inhibition of human SCH cell growth in a cell viability assay.

LB1047-RCC = type: functional, cell-based, Homo sapiens; details: Homo sapiens, LB1047-RCC;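 note: inhibition of cell growth, determined with a cell viability assay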
Description: SANGER: Inhibition of human LB1047-RCC cell growth in a cell viability assay.

LU-139 = type: functional, cell-based, Homo sapiens; details: Homo sapiens, LU-139
Description: SANGER: Inhibition of human LU-139 cell growth in a cell viability assay.

BV-173 = type: functional, cell-based, Homo sapiens; details: Homo sapiens, BV-173
Description: SANGER: Inhibition of human BV-173 cell growth in a cell viability assay.

A4-Fuk = type: functional, cell-based, Homo sapiens; details: Homo sapiens, A4-Fuk;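 note: growth inhibition of A4-Fuk cells, read out by a cell viability assay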
Description: SANGER: Inhibition of human A4-Fuk cell growth in a cell viability assay.

EW-1 = type: functional, cell-based, Homo sapiens; details: Homo sapiens, EW-1;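 note: growth inhibition of the human EW-1 cell line, read out by a cell viability assay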
Description: SANGER: Inhibition of human EW-1 cell growth in a cell viability assay.

HEL = type: functional, cell-based, Homo sapiens; details: Homo sapiens, HEL;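 note: growth inhibition of HEL cells, read out with a cell viability assay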
Description: SANGER: Inhibition of human HEL cell growth in a cell viability assay.

HCE-T = type: functional, cell-based, Homo sapiens; details: Homo sapiens, HCE-T;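 note: cell viability assay read-out, reporting inhibition of HCE-T cell growth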
Description: SANGER: Inhibition of human HCE-T cell growth in a cell viability assay.

GI-1 = type: functional, cell-based, Homo sapiens; details: Homo sapiens, GI-1;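 note: growth inhibition of human GI-1 cells, measured with a cell viability readout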
Description: SANGER: Inhibition of human GI-1 cell growth in a cell viability assay.

NCI-H1650 = type: functional, cell-based, Homo sapiens; details: Homo sapiens, NCI-H1650;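 note: growth inhibition of human NCI-H1650 cells measured by a cell viability assay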
Description: SANGER: Inhibition of human NCI-H1650 cell growth in a cell viability assay.

SK-LMS-1 = type: functional, cell-based, Homo sapiens; details: Homo sapiens, SK-LMS-1;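 note: growth inhibition of human SK-LMS-1 cells, read out with a cell viability assay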
Description: SANGER: Inhibition of human SK-LMS-1 cell growth in a cell viability assay.

D-502MG = type: functional, cell-based, Homo sapiens; details: Homo sapiens, D-502MG
Description: SANGER: Inhibition of human D-502MG cell growth in a cell viability assay.

RCC10RGB = type: functional, cell-based, Homo sapiens; details: Homo sapiens, RCC10RGB;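 note: growth inhibition of human RCC10RGB cells, read out by a cell viability assay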
Description: SANGER: Inhibition of human RCC10RGB cell growth in a cell viability assay.

NCI-H209 = type: functional, cell-based, Homo sapiens; details: Homo sapiens, NCI-H209;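 note: growth inhibition of human NCI-H209 cells, measured by a cell viability assay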
Description: SANGER: Inhibition of human NCI-H209 cell growth in a cell viability assay.

CTV-1 = type: functional, cell-based, Homo sapiens; details: Homo sapiens, CTV-1;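 note: growth inhibition of the cell line, read out with a cell viability assay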
Description: SANGER: Inhibition of human CTV-1 cell growth in a cell viability assay.

MZ1-PC = type: functional, cell-based, Homo sapiens; details: Homo sapiens, MZ1-PC;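 note: cell viability assay measuring growth inhibition of human MZ1-PC cells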
Description: SANGER: Inhibition of human MZ1-PC cell growth in a cell viability assay.

NEC8 = type: functional, cell-based, Homo sapiens; details: Homo sapiens, NEC8;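 note: growth inhibition of human NEC8 cells, read out by a cell viability assay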
Description: SANGER: Inhibition of human NEC8 cell growth in a cell viability assay.

EW-3 = type: functional, cell-based, Homo sapiens; details: Homo sapiens, EW-3;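 note: cell viability assay read-out, IC50 reflects inhibition of growth of the EW-3 cells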
Description: SANGER: Inhibition of human EW-3 cell growth in a cell viability assay.

NB69 = type: functional, cell-based, Homo sapiens; details: Homo sapiens, NB69;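 note: growth inhibition of NB69 cells, determined by a cell viability assay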
Description: SANGER: Inhibition of human NB69 cell growth in a cell viability assay.

BE-13 = type: functional, cell-based, Homo sapiens; details: Homo sapiens, BE-13;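 note: growth inhibition of human BE-13 cells, measured with a cell viability assay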
Description: SANGER: Inhibition of human BE-13 cell growth in a cell viability assay.

NB13 = type: functional, cell-based, Homo sapiens; details: Homo sapiens, NB13;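 note: cell viability readout measuring growth inhibition of human NB13 cells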
Description: SANGER: Inhibition of human NB13 cell growth in a cell viability assay.

L-428 = type: functional, cell-based, Homo sapiens; details: Homo sapiens, L-428
Description: SANGER: Inhibition of human L-428 cell growth in a cell viability assay.

Calu-6 = type: functional, cell-based, Homo sapiens; details: Homo sapiens, Calu-6;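 note: growth of human Calu-6 cells, read out by a cell viability assay, IC50 marking inhibition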
Description: SANGER: Inhibition of human Calu-6 cell growth in a cell viability assay.

NCI-H1770 = type: functional, cell-based, Homo sapiens; details: Homo sapiens, NCI-H1770;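 note: growth inhibition of NCI-H1770 cells determined with a viability readout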
Description: SANGER: Inhibition of human NCI-H1770 cell growth in a cell viability assay.

Becker = type: functional, cell-based, Homo sapiens; details: Homo sapiens, Becker;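 note: growth inhibition of Becker cells, read out with a cell viability assay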
Description: SANGER: Inhibition of human Becker cell growth in a cell viability assay.

HCE-4 = type: functional, cell-based, Homo sapiens; details: Homo sapiens, HCE-4;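 note: cell viability assay measuring inhibition of growth in the human HCE-4 cell line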
Description: SANGER: Inhibition of human HCE-4 cell growth in a cell viability assay.

TE-12 = type: functional, cell-based, Homo sapiens; details: Homo sapiens, TE-12;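 note: growth inhibition of TE-12 cells, read out by a cell viability assay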
Description: SANGER: Inhibition of human TE-12 cell growth in a cell viability assay.

NCI-H446 = type: functional, cell-based, Homo sapiens; details: Homo sapiens, NCI-H446;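 note: growth inhibition of NCI-H446 cells determined by a cell viability assay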
Description: SANGER: Inhibition of human NCI-H446 cell growth in a cell viability assay.

ML-2 = type: functional, cell-based, Homo sapiens; details: Homo sapiens, ML-2;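 note: growth inhibition of ML-2 cells, measured with a cell viability readout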
Description: SANGER: Inhibition of human ML-2 cell growth in a cell viability assay.

ES6 = type: functional, cell-based, Homo sapiens; details: Homo sapiens, ES6;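 note: growth inhibition of human ES6 cells, read out with a cell viability assay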
Description: SANGER: Inhibition of human ES6 cell growth in a cell viability assay.

GT3TKB = type: functional, cell-based, Homo sapiens; details: Homo sapiens, GT3TKB;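 note: growth inhibition of the cell line, read out with a cell viability assay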
Description: SANGER: Inhibition of human GT3TKB cell growth in a cell viability assay.

GCIY = type: functional, cell-based, Homo sapiens; details: Homo sapiens, GCIY;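 note: growth inhibition of the human GCIY cell line, read out by a cell viability assay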
Description: SANGER: Inhibition of human GCIY cell growth in a cell viability assay.

Q: Which results are given for `CCN(CC)CCNC(=O)c1c(C)[nH]c(/C=C2\C(=O)Nc3ccc(F)cc32)c1C` [SUNITINIB]?
A: pIC50 (Lu-65): < 5.10; pIC50 (ES8): < 5.10; pIC50 (ETK-1): 5.89; pIC50 (HCC2157): < 5.10; pIC50 (NCI-H226): < 5.10; pIC50 (SF-126): 5.51; pIC50 (NB10): < 5.10; pIC50 (KP-N-YS): < 5.10; pIC50 (SHP77): < 5.10; pIC50 (NCI-H2126): < 5.10; pIC50 (SK-MEL-1): < 5.10; pIC50 (GOTO): < 5.10; pIC50 (KLE): < 5.10; pIC50 (COLO-800): < 5.10; pIC50 (AM-38): < 5.10; pIC50 (ATN-1): 5.44; pIC50 (SCH): < 5.10; pIC50 (LB1047-RCC): 5.74; pIC50 (LU-139): < 5.10; pIC50 (BV-173): 5.63; pIC50 (A4-Fuk): 5.87; pIC50 (EW-1): 5.33; pIC50 (HEL): 5.46; pIC50 (HCE-T): < 5.10; pIC50 (GI-1): < 5.10; pIC50 (NCI-H1650): < 5.10; pIC50 (SK-LMS-1): 5.42; pIC50 (D-502MG): < 5.10; pIC50 (RCC10RGB): < 5.10; pIC50 (NCI-H209): < 5.10; pIC50 (CTV-1): 5.76; pIC50 (MZ1-PC): 5.14; pIC50 (NEC8): < 5.10; pIC50 (EW-3): 5.19; pIC50 (NB69): < 5.10; pIC50 (BE-13): 5.49; pIC50 (NB13): < 5.10; pIC50 (L-428): < 5.10; pIC50 (Calu-6): < 5.10; pIC50 (NCI-H1770): < 5.10; pIC50 (Becker): < 5.10; pIC50 (HCE-4): 5.42; pIC50 (TE-12): 6.09; pIC50 (NCI-H446): < 5.10; pIC50 (ML-2): 5.58; pIC50 (ES6): 6.01; pIC50 (GT3TKB): 5.18; pIC50 (GCIY): < 5.10

Q: With `COc1cc(N2CCN(C)CC2)ccc1Nc1ncc2c(n1)N(C)c1ccccc1C(=O)N2C` as the compound, how does the pIC50 (Lu-65) read?
A: < 5.10

Q: What about the pIC50 (ES8) of the same compound?
A: 5.38

Q: What about the pIC50 (ETK-1) of the same compound?
A: < 5.10

Q: And the pIC50 (HCC2157)?
A: < 5.10

Q: What about the pIC50 (NCI-H226) of the same compound?
A: < 5.10

Q: And the pIC50 (SF-126)?
A: < 5.10

Q: What about the pIC50 (NB10) of the same compound?
A: < 5.10

Q: And the pIC50 (KP-N-YS)?
A: < 5.10

Q: What about the pIC50 (SHP77) of the same compound?
A: < 5.10

Q: What about the pIC50 (NCI-H2126) of the same compound?
A: < 5.10

Q: And the pIC50 (SK-MEL-1)?
A: < 5.10

Q: And the pIC50 (GOTO)?
A: < 5.10

Q: And the pIC50 (COLO-800)?
A: < 5.10

Q: And the pIC50 (AM-38)?
A: < 5.10

Q: What about the pIC50 (ATN-1) of the same compound?
A: < 5.10

Q: And the pIC50 (SCH)?
A: < 5.10

Q: And the pIC50 (LB1047-RCC)?
A: < 5.10

Q: And the pIC50 (LU-139)?
A: 5.16

Q: What about the pIC50 (BV-173) of the same compound?
A: 5.13

Q: And the pIC50 (A4-Fuk)?
A: 5.41

Q: What about the pIC50 (EW-1) of the same compound?
A: 5.42

Q: And the pIC50 (HEL)?
A: 5.23

Q: And the pIC50 (HCE-T)?
A: < 5.10

Q: And the pIC50 (GI-1)?
A: < 5.10

Q: And the pIC50 (NCI-H1650)?
A: < 5.10

Q: And the pIC50 (SK-LMS-1)?
A: < 5.10

Q: And the pIC50 (D-502MG)?
A: < 5.10

Q: What about the pIC50 (RCC10RGB) of the same compound?
A: < 5.10

Q: What about the pIC50 (NCI-H209) of the same compound?
A: < 5.10

Q: And the pIC50 (CTV-1)?
A: < 5.10

Q: And the pIC50 (MZ1-PC)?
A: < 5.10

Q: What about the pIC50 (NEC8) of the same compound?
A: < 5.10

Q: And the pIC50 (EW-3)?
A: < 5.10

Q: And the pIC50 (NB69)?
A: 5.11

Q: What about the pIC50 (BE-13) of the same compound?
A: < 5.10

Q: What about the pIC50 (NB13) of the same compound?
A: < 5.10

Q: What about the pIC50 (L-428) of the same compound?
A: < 5.10

Q: And the pIC50 (Calu-6)?
A: < 5.10

Q: And the pIC50 (NCI-H1770)?
A: 5.32

Q: And the pIC50 (Becker)?
A: 5.13

Q: What about the pIC50 (TE-12) of the same compound?
A: 5.26

Q: What about the pIC50 (NCI-H446) of the same compound?
A: < 5.10

Q: What about the pIC50 (ML-2) of the same compound?
A: 5.13

Q: And the pIC50 (ES6)?
A: < 5.10

Q: What about the pIC50 (GT3TKB) of the same compound?
A: < 5.10

Q: What about the pIC50 (GCIY) of the same compound?
A: < 5.10

Q: Which results are given for `C#Cc1cccc(Nc2ncnc3cc(OCCOC)c(OCCOC)cc23)c1` [ERLOTINIB]?
A: pIC50 (Lu-65): < 5.70; pIC50 (ES8): < 5.70; pIC50 (ETK-1): < 5.70; pIC50 (HCC2157): < 5.70; pIC50 (NCI-H226): < 5.70; pIC50 (SF-126): < 5.70; pIC50 (NB10): < 5.70; pIC50 (KP-N-YS): < 5.70; pIC50 (SHP77): < 5.70; pIC50 (NCI-H2126): < 5.70; pIC50 (SK-MEL-1): < 5.70; pIC50 (GOTO): < 5.70; pIC50 (COLO-800): < 5.70; pIC50 (AM-38): < 5.70; pIC50 (ATN-1): < 5.70; pIC50 (SCH): < 5.70; pIC50 (LB1047-RCC): < 5.70; pIC50 (LU-139): < 5.70; pIC50 (BV-173): < 5.70; pIC50 (A4-Fuk): < 5.70; pIC50 (EW-1): < 5.70; pIC50 (HEL): < 5.70; pIC50 (HCE-T): < 5.70; pIC50 (GI-1): < 5.70; pIC50 (NCI-H1650): < 5.70; pIC50 (SK-LMS-1): < 5.70; pIC50 (D-502MG): < 5.70; pIC50 (RCC10RGB): < 5.70; pIC50 (NCI-H209): < 5.70; pIC50 (CTV-1): < 5.70; pIC50 (MZ1-PC): < 5.70; pIC50 (NEC8): < 5.70; pIC50 (EW-3): < 5.70; pIC50 (NB69): < 5.70; pIC50 (BE-13): < 5.70; pIC50 (NB13): < 5.70; pIC50 (L-428): < 5.70; pIC50 (Calu-6): < 5.70; pIC50 (NCI-H1770): < 5.70; pIC50 (Becker): < 5.70; pIC50 (TE-12): 7.26; pIC50 (NCI-H446): < 5.70; pIC50 (ML-2): < 5.70; pIC50 (ES6): < 5.70; pIC50 (GT3TKB): < 5.70; pIC50 (GCIY): < 5.70
